Assay results published in patent publication EP2611847B1, “AMPHIPHILE FOR SOLUBILIZATION OF WATER-SOLUBLE ACTIVE INGREDIENTS” (BASF SE, priority 2010, dated 2012).
Converted amounts (≈) assume the structure as drawn. Read-outs that look alike come from different tables or passages of the source.

Test: physchem
Type: physicochemical
Details: for solubility thermodynamic at 24 h: thermodynamic from solid
Method: In einem 50 mL Becherglas wurden 100 mg Polymer eingewogen und in 9,900 g dest. Wasser gelöst. Anschließend wurde dem Ansatz jeweils 100 mg Wirkstoff zugewogen, um eine übersättigte Lösung zu erhalten. Das Gemisch wurde nun 24 h bei Raumtemperatur mit Hilfe eines Magnetrührers gerührt. Nach einstündiger Ruhezeit wurde überschüssiger (d.h. nicht solubilisierter) Wirkstoff durch Zentrifugieren abgetrennt. Die so erhaltene, klare bzw. opake Lösung wurde anschließend auf ihren Wirkstoffgehalt mittels UV-Spektroskopie untersucht. Die Wellenlänge der UV-spektroskopischen Messung sind in Tabelle 1 zusammengestellt. Die Ergebnisse sind in Tabelle 2 zusammengestellt.

[1] = active alone in dist. water without polymer (not according to the invention), 24 h at room temperature

Row | SMILES | Löslichkeit Ohne Polymer [1] | further results
1 | NC(=O)N1c2ccccc2C=Cc2ccccc21 [Carbamazepin] | 140 mg/L | 
2 | N#Cc1nn(-c2c(Cl)cc(C(F)(F)F)cc2Cl)c(N)c1[S+]([O-])C(F)(F)F (stereo not shown) [Fipronil] |  | solubility thermodynamic at 24 h (distilled water without polymer, active alone in dist. water without polymer (not according to the invention), 24 h at room temperature, read-out: Löslichkeit Ohne Polymer): 3 µg/mL (≈ 6.86 µM)
3 | CN1C(C(=O)Nc2ccccn2)=C(O)c2ccccc2S1(=O)=O [Piroxicam] |  | solubility thermodynamic at 24 h (water): 21 µg/mL (≈ 63.4 µM)
4 | COC(=O)N(OC)c1ccccc1COc1ccn(-c2ccc(Cl)cc2)n1 [Pyraclostrobin] | 22,5 mg/l | 
